Measured values reported in US8022057B2, “MAPK/ERK kinase inhibitors” (Takeda Pharmaceutical Company Limited, priority 2007, dated 2011).

Target: T1, MEK1 (Homo sapiens, UniProt Q02750, DEL33-52/S218E/S222D)
T1 construct: 6-histidine tag (pFastbac leader) (N); made in house; host or cells: Spodoptera frugiperda Sf9 (baculovirus) for MEK1; E. coli for GST-ERK1
Assay: MEK1 inhibition, fluorescence polarization (IMAP) assay with ERK1 and FI-Erktide
Type: biochemical
Settings: 1 nM MEK1, 25 nM ERK1, 400 μM ATP, 500 nM FI-Erktide, 22 min at room temperature; read-out: IC50 of Exemplified Compounds Against MEK1
Description: The deletion from residues 32-51, and the two mutations, S218E and S222D, may be obtained by quick change PCR.
Reaction product is determined quantitatively by fluorescent polarization using progressive IMAP beads from Molecular Devices.
The reaction mixture may then be incubated at room temperature for 22 min, and quenched and developed by addition of 20 μl of 1:200 dilution of progressive IMAP beads (Molecular Devices) in 80% buffer A, 20% buffer B and 0.003% Tween 20. Fluorescence polarization of the resulting reaction mixtures may be measured after a 1 hour incubation at room temperature.
IC50 values may be calculated by non-linear curve fitting of the compound concentrations and fluorescence polarization signal to the standard IC50 equation.

T1 sequence (Q02750 with tags, fused parts or gaps DEL33-52/S218E/S222D): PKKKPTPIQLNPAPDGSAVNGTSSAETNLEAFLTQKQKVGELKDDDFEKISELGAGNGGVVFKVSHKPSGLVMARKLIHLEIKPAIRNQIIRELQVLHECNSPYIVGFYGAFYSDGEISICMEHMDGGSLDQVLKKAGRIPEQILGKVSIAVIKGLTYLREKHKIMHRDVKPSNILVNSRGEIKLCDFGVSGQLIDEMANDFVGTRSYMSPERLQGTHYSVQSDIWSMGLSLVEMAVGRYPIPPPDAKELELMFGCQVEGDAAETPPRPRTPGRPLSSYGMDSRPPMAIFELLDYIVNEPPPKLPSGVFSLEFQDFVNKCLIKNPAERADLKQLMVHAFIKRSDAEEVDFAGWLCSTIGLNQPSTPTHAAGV

| Compound | IC50 |
| --- | --- |
| O=C(NOC[C@@H](O)CO)c1c(Nc2ccc(I)cc2F)c(F)c(=O)n2c1CCC2 [Example 5, (S)—N-(2,3-Dihydroxypropoxy)-6-fluoro-7-(2-fluoro-4-iodophenylamino)-5-oxo-1,2,3,5-tetrahydroindolizine-8-carboxamide] | ≤ 100 nM |
| O=C(NOCCO)c1c(Nc2ccc(I)cc2F)c(F)c(=O)n2c1CCCC2 [Example 7, 7-Fluoro-8-(2-fluoro-4-iodophenylamino)-N-(2-hydroxyethoxy)-6-oxo-2,3,4,6-tetrahydro-1H-quinolizine-9-carboxamide] | ≤ 100 nM |
| Cc1c(Nc2ccc(I)cc2F)c(C(=O)NOCCO)c2n(c1=O)CCC2 [Example 8, 7-(2-Fluoro-4-iodophenylamino)-N-(2-hydroxyethoxy)-6-methyl-5-oxo-1,2,3,5-tetrahydroindolizine-8-carboxamide] | ≤ 100 nM |
| O=C(NOCCO)c1c(Nc2ccc(I)cc2F)c(Cl)c(=O)n2c1CCC2 [Example 10, 6-Chloro-7-(2-fluoro-4-iodophenylamino)-N-(2-hydroxyethoxy)-5-oxo-1,2,3,5-tetrahydroindolizine-8-carboxamide] | ≤ 100 nM |
| C#Cc1ccc(Nc2c(C(=O)NOCCO)c3n(c(=O)c2F)CCC3)c(F)c1 [Example 11, 7-(4-Ethynyl-2-fluorophenylamino)-6-fluoro-N-(2-hydroxyethoxy)-5-oxo-1,2,3,5-tetrahydroindolizine-8-carboxamide] | ≤ 100 nM |

Further lines, results first:

| IC50 | Compound |
| --- | --- |
| ≤ 100 nM | O=C(O)c1c(Nc2ccc(I)cc2F)c(F)c(=O)n2c1CCC2 [Example 1, 6-Fluoro-7-(2-fluoro-4-iodophenylamino)-5-oxo-1,2,3,5-tetrahydroindolizine-8-carboxylic acid] |
| ≤ 100 nM | O=C(NOC[C@H](O)CO)c1c(Nc2ccc(I)cc2F)c(F)c(=O)n2c1CCC2 [Example 2, (R)—N-(2,3-Dihydroxypropoxy)-6-fluoro-7-(2-fluoro-4-iodophenylamino)-5-oxo-1,2,3,5-tetrahydroindolizine-8-carboxamide] |
| ≤ 100 nM | O=C(NOC(CO)CO)c1c(Nc2ccc(I)cc2F)c(F)c(=O)n2c1CCC2 [Example 3, N-(1,3-Dihydroxypropan-2-yloxy)-6-fluoro-7-(2-fluoro-4-iodophenylamino)-5-oxo-1,2,3,5-tetrahydroindolizine-8-carboxamide] |
| ≤ 100 nM | O=C(NOCCO)c1c(Nc2ccc(I)cc2F)c(F)c(=O)n2c1CCC2 [Example 4, 6-Fluoro-7-(2-fluoro-4-iodophenylamino)-N-(2-hydroxyethoxy)-5-oxo-1,2,3,5-tetrahydroindolizine-8-carboxamide] |
